Reference: publication PMC6999911, “New 2-Ethylthio-4-methylaminoquinazoline derivatives inhibiting two subunits of cytochrome bc1 in Mycobacterium tuberculosis” (PLoS Pathogens, 2020)
Converted amounts (≈) assume the structure as drawn. Where two headings read alike, the source gives them in different places.

What was measured:
[1] = test system: non-replicating, streptomycin-starved strain 18b; assay: Activity against non-replicating strain 18b (model for latent TB); format: cell-based, Mycobacterium tuberculosis; details: streptomycin-starved 18b
[2] = test system: Mycobacteroides abscessus subsp. bolletii 1999–0888; assay: MIC, different organisms; format: cell-based
[3] = test system: Corynebacterium glutamicum ATCC13032; assay: MIC, different organisms; format: cell-based
[4] = test system: Mycobacterium smegmatis mc^2155; assay: MIC, different organisms; format: cell-based; details: Mycolicibacterium smegmatis
Micrococcus luteus = assay: MIC, different organisms; format: cell-based
[5] = microsomes
[6] = test system: Mycobacteroides abscessus subsp. abscessus 2005–0524; assay: MIC, different organisms; format: cell-based
[7] = test system: Mycobacterium avium ATCC15769; assay: MIC, different organisms; format: cell-based
[8] = test system: THP-1 macrophages infected with M.tb H37Rv; assay: Ex vivo drug susceptibility in infected THP-1 macrophages; format: cell-based; details: Mycobacterium tuberculosis; THP-1 macrophages infected with H37Rv, 48h
[9] = test system: Mycobacteroides abscessus subsp. massiliense 2005–0484; assay: MIC, different organisms; format: cell-based
HepG2 cells = format: cell-based, Human; details: for Selective index TD50/MIC: HepG2 TD50 / H37Rv MIC; for HepG2 TD99: Toxic dose that inhibits 99% of cell growth, 3 days
Description: Human HepG2 cells (ATCC HB-8065, 4000 cells/well) were incubated for 3 days with two-fold serially diluted compounds at 37°C, under an atmosphere of 5% CO2. Cell viability was determined by the addition of resazurin (0.0025% w/v) for 5 h at 37°C and the fluorescence intensity measured as in REMA.

Pseudomonas putida = assay: MIC, different organisms; format: cell-based
[10] = test system: Mycolicibacterium vaccae ATCC 15483; assay: MIC, different organisms; format: cell-based; details: ATCC15483
Escherichia coli PQ37 = assay: MIC, different organisms; format: cell-based
[11] = test system: Corynebacterium diphtheriae; assay: MIC, different organisms; format: cell-based
Candida albicans = assay: MIC, different organisms; format: cell-based
in vitro = details: human, microsomes
[12] = test system: Mycobacterium tuberculosis HN878; assay: MIC, different organisms; format: cell-based
[13] = test system: Mycobacterium tuberculosis Erdman; assay: MIC, different organisms; format: cell-based
Listeria monocytogenes = assay: MIC, different organisms; format: cell-based
[14] = test system: Mycobacterium canettii STB-L; assay: MIC, different organisms; format: cell-based; details: Mycobacterium canetti
Pseudomonas aeruginosa = assay: MIC, different organisms; format: cell-based
[15] = test system: Mycobacterium bovis BCG Pasteur; assay: microbe, parasite or virus in culture; format: cell-based; details: Mycobacterium tuberculosis variant bovis BCG
Salmonella typhimurium = assay: MIC, different organisms; format: cell-based; details: Salmonella enterica
[16] = test system: Mycobacterium marinum Strain M; assay: MIC, different organisms; format: cell-based
[17] = test system: Mycobacterium tuberculosis MDR 59744; assay: MIC, different organisms; format: cell-based
Enterococcus faecalis = assay: MIC, different organisms; format: cell-based
Bacillus subtilis = assay: MIC, different organisms; format: cell-based
Staphylococcus aureus = assay: MIC, different organisms; format: cell-based
M. tb H37Rv ΔcydAB [18] = format: cell-based; details: ΔcydAB strain of M. tb H37Rv, even after CCCP
M. tb H37Rv [19] = format: cell-based; details: 1X - 32X MIC, 7 days
[20] = test system: cydB and lipU in M. tb H37Rv; format: cell-based, Mycobacterium tuberculosis; details: M. tb H37Rv exposed to 11626252, 4 h
M. tb H37Rv [21] = format: cell-based; details: 11626252 8.4 μM (100x the MIC50)
H37Rv = format: cell-based, Mycobacterium tuberculosis; details: 2.5X MIC, 24 h, compared to untreated controls
M. tb H37Rv ΔcydAB [22] = format: cell-based; details: 8X MIC, 32X MIC, 7 days, d.l. = limit of detection
M. tb H37Rv South Africa = assay: Acute model of murine TB; format: in vivo, Mycobacterium tuberculosis; details: Balb/c mice
[23] = Mycobacterium canettii STB-L, read-out: MIC

SMILES | MIC [2] [µg/mL] | MIC [3] [µg/mL] | MIC [4] [µg/mL] | MIC (Micrococcus luteus) [µg/mL] | Human microsome stability, clearance class [5] | MIC [6] [µg/mL] | MIC [7] [µg/mL] | MIC [9] [µg/mL] | Selective index TD50/MIC (HepG2 cells) | HepG2 TD99 (HepG2 cells) [µg/mL] | MIC (Pseudomonas putida) [µg/mL] | MIC [10] [µg/mL] | MIC (Escherichia coli PQ37) [µg/mL] | MIC [11] [µg/mL] | MIC (Candida albicans) [µg/mL] | microsomal CLint (in vitro) [µL/min/mg] | MIC [12] [µg/mL] | MIC [13] [µg/mL] | MIC (Listeria monocytogenes) [µg/mL] | MIC (Pseudomonas aeruginosa) [µg/mL] | further results
CNc1nc(SCc2ccccc2)nc2cccc(F)c12 | – | – | – | – | – | – | – | – | – | – | – | – | – | – | – | – | – | – | – | – | melting point: 101 to 104 °C
CCSc1nc(NC)c2cc(C(F)(F)F)ccc2n1 | – | – | – | – | – | – | – | – | – | – | – | – | – | – | – | – | – | – | – | – | melting point: 161 to 163 °C
CCSc1nc(NC)c2ccccc2n1 [Compound 11626141] | ≥ 100 | 66.8 (≈ 305 µM) | 38.4 (≈ 175 µM) | ≥ 100 | high | 62.4 (≈ 285 µM) | ≥ 100 | ≥ 100 | 575 | 53 | ≥ 100 | ≥ 100 | ≥ 100 | ≥ 100 | ≥ 100 | 120 | 0.05 (≈ 0.228 µM) | 0.01 (≈ 0.0456 µM) | ≥ 100 | ≥ 100 | Activity against non-replicating strain 18b [1]: no activity; IC50 [8]: 0.013 µg/mL (≈ 0.0593 µM); MIC [14, 23]: 0.05 µg/mL (≈ 0.228 µM); MIC [15]: 0.9 µg/mL (≈ 4.1 µM); MIC (Salmonella typhimurium): ≥ 100 µg/mL; MIC [16]: 0.1 µg/mL (≈ 0.456 µM); MIC ([17]; MDR59744, read-out: MIC): 0.02 µg/mL (≈ 0.0912 µM); MIC (Enterococcus faecalis): ≥ 100 µg/mL; MIC (Bacillus subtilis): ≥ 100 µg/mL; MIC (Staphylococcus aureus): ≥ 100 µg/mL
CCNc1nc(SCC)nc2ccccc12 [Compound 11626142] | ≥ 100 | 75 (≈ 321 µM) | 75.6 (≈ 324 µM) | ≥ 100 | high | 100 (≈ 429 µM) | 49.1 (≈ 210 µM) | ≥ 100 | 100 | 26 | ≥ 100 | ≥ 100 | ≥ 100 | 44.3 (≈ 190 µM) | 44.3 (≈ 190 µM) | 122 | 0.2 (≈ 0.857 µM) | 0.1 (≈ 0.429 µM) | ≥ 100 | ≥ 100 | Activity against non-replicating strain 18b [1]: no activity; IC50 [8]: 0.012 µg/mL (≈ 0.0514 µM); MIC [14, 23]: 0.2 µg/mL (≈ 0.857 µM); MIC [15]: 0.8 µg/mL (≈ 3.43 µM); MIC (Salmonella typhimurium): ≥ 100 µg/mL; MIC [16]: 0.8 µg/mL (≈ 3.43 µM); MIC ([17]; MDR59744, read-out: MIC): 0.09 µg/mL (≈ 0.386 µM); MIC (Enterococcus faecalis): ≥ 100 µg/mL; MIC (Bacillus subtilis): ≥ 100 µg/mL; MIC (Staphylococcus aureus): ≥ 100 µg/mL
CCSc1nc(NC)c2cccc(F)c2n1 [Compound 11626252] | ≥ 100 | 47.2 (≈ 199 µM) | 32.3 (≈ 136 µM) | ≥ 100 | medium | ≥ 100 | ≥ 100 | ≥ 100 | 1950 | > 100 | ≥ 100 | ≥ 100 | ≥ 100 | ≥ 100 | ≥ 100 | 18.1 | 0.03 (≈ 0.126 µM) | 0.02 (≈ 0.0843 µM) | ≥ 100 | ≥ 100 | Activity against non-replicating strain 18b [1]: no activity; oxygen consumption rate (OCR) after exposure (M. tb H37Rv ΔcydAB [18]): rapid and sustained decrease; static or cidal activity by CFU enumeration (M. tb H37Rv [19]): bacteriostatic; IC50 [8]: 0.011 µg/mL (≈ 0.0464 µM); expression of cydB and lipU (qRT-PCR) [20]: Overexpression; MIC [14, 23]: 0.03 µg/mL (≈ 0.126 µM); MIC [15]: 1.6 µg/mL (≈ 6.74 µM); oxygen consumption rate (OCR) after exposure (M. tb H37Rv [21]): increased; MIC (Salmonella typhimurium): ≥ 100 µg/mL; remaining relative ATP level (H37Rv): 19.81±8.125%; MIC [16]: 0.007 µg/mL (≈ 0.0295 µM); MIC ([17]; MDR59744, read-out: MIC): 0.02 µg/mL (≈ 0.0843 µM); MIC (Enterococcus faecalis): ≥ 100 µg/mL; MIC (Bacillus subtilis): ≥ 100 µg/mL; MIC (Staphylococcus aureus): ≥ 100 µg/mL; log10 CFU/mL (M. tb H37Rv ΔcydAB [22]): < d.l.
CCSc1nc(NC)c2ccc(F)c(F)c2n1 [Compound 11726148] | – | – | – | – | medium | – | – | – | 780 | > 100 | – | – | – | – | – | 28.7 | – | – | – | – | melting point: 186 to 189 °C; decrease of bacterial burden in the lungs (M. tb H37Rv South Africa; 150 mg/kg gavage daily for 10 days, vs untreated TPGS control, p-value 0.004): 0.51 log10 CFU/organ
NNC(=O)c1ccncc1 [INH, isoniazid, reference compound] | – | – | – | – | – | – | – | – | – | – | – | – | – | – | – | – | – | – | – | – | log10 CFU per lung (M. tb H37Rv South Africa; INH 25mg/kg gavage, 10 days, d.l. = limit of detection): < d.l.
CO[C@H]1/C=C/O[C@@]2(C)Oc3c(C)c(O)c4c(O)c(c(/C=N/N5CCN(C)CC5)c(O)c4c3C2=O)NC(=O)/C(C)=C\C=C\[C@H](C)[C@H](O)[C@@H](C)[C@@H](O)[C@@H](C)[C@H](OC(C)=O)[C@@H]1C [RIF, rifampicin, reference compound] | 24.8 (≈ 30.1 µM) | 0.004 (≈ 0.00486 µM) | 0.9 (≈ 1.09 µM) | 0.2 (≈ 0.243 µM) | – | 18.1 (≈ 22 µM) | 27.3 (≈ 33.2 µM) | 9.5 (≈ 11.5 µM) | – | – | 3 (≈ 3.65 µM) | 6.6 (≈ 8.02 µM) | 6.5 (≈ 7.9 µM) | 0.5 (≈ 0.608 µM) | 2.2 (≈ 2.67 µM) | – | 0.0006 (≈ 0.000729 µM) | 0.001 (≈ 0.00122 µM) | 0.6 (≈ 0.729 µM) | 0.2 (≈ 0.243 µM) | MIC [14]: 0.001 µg/mL (≈ 0.00122 µM); MIC [15]: 0.0008 µg/mL (≈ 0.000972 µM); MIC (Salmonella typhimurium): 0.8 µg/mL (≈ 0.972 µM); MIC [16]: 0.2 µg/mL (≈ 0.243 µM); MIC ([17]; MDR59744): ≥ 10 µg/mL; MIC (Enterococcus faecalis): 3.9 µg/mL (≈ 4.74 µM); MIC (Bacillus subtilis): 0.3 µg/mL (≈ 0.365 µM); MIC (Staphylococcus aureus): 1.4 µg/mL (≈ 1.7 µM)
